The subject of the data set is CCRIS mutagenicity, Ames/micronucleus/aberration tests. Nature of the data set: CCRIS mutagenicity studies.

Activity calls are given as the source filed them. No rule for the calls is given here.

In the case of `O=C(O)C(Br)Br`, the mutagenic call is, setting by setting: (End Point: Ames Salmonella typhimurium, Test System: TA98, Metabolic Activation: Hamster, liver, S-9, Aroclor 1254, Method: Preincubation) “inactive; negative”; (End Point: Ames Salmonella typhimurium, Test System: TA100, Metabolic Activation: Hamster, liver, S-9, Aroclor 1254, Method: Preincubation) “active; positive”; (End Point: In vivo micronucleus, Test System: Peripheral blood erythrocytes, Species: Mouse, Strain/Sex: B6C3F1/Female, Route: Oral (drinking water)) “inactive; negative (for increased frequencies of micronucleated normochromatic erythrocyte”; (End Point: In vivo micronucleus, Test System: Peripheral blood erythrocytes, Species: Mouse, Strain/Sex: B6C3F1/Male, Route: Oral (drinking water)) “inactive; positive (for increased frequencies of micronucleated normochromatic erythrocyte”; (Test System: AMES SALMONELLA TYPHIMURIUM, Strain/Indicator: RSJ100, Metabolic Activation: NONE, Method: PREINCUBATION) “inactive; negative”; (Test System: AMES SALMONELLA TYPHIMURIUM, Strain/Indicator: RSJ100, Metabolic Activation: RAT LIVER S-9, Method: PREINCUBATION) “inactive; negative”. Besides, the mutagenic call (Test System: AMES SALMONELLA TYPHIMURIUM, Strain/Indicator: TA98, Metabolic Activation: RAT LIVER S-9, Method: PREINCUBATION) was “active; positive”; the mutagenic call (Test System: AMES SALMONELLA TYPHIMURIUM, Strain/Indicator: TA98, Metabolic Activation: RAT, LIVER, S-9, PHENOBARBITAL AND 5,6-BENZOFLAVONE, Method: PREINCUBATION) was “inactive; negative”; the mutagenic call (Test System: AMES SALMONELLA TYPHIMURIUM, Strain/Indicator: TA100, Metabolic Activation: NONE, Method: FLUCTUATION TEST) is “active; positive”; the mutagenic call (Test System: AMES SALMONELLA TYPHIMURIUM, Strain/Indicator: TA100, Metabolic Activation: NONE, Method: PREINCUBATION) is “active; positive”; the mutagenic call (Test System: AMES SALMONELLA TYPHIMURIUM, Strain/Indicator: TA100, Metabolic Activation: RAT LIVER S-9, Method: PREINCUBATION) was “active; positive”; the mutagenic call (Test System: AMES SALMONELLA TYPHIMURIUM, Strain/Indicator: TA100, Metabolic Activation: RAT, LIVER, S-9, AROCLOR 1254, Method: FLUCTUATION TEST) is “active; positive”. Besides, the mutagenic call is “active; positive” (Test System: AMES SALMONELLA TYPHIMURIUM, Strain/Indicator: TA100, Metabolic Activation: RAT, LIVER, S-9, PHENOBARBITAL AND 5,6-BENZOFLAVONE, Method: PREINCUBATION); “inactive; negative” (Test System: Ames Salmonella typhimurium, Strain/Indicator: TA98, Metabolic Activation: None, Method: Preincubation); “inactive; negative” (Test System: Ames Salmonella typhimurium, Strain/Indicator: TA98, Metabolic Activation: Rat, liver, S-9, Aroclor 1254, Method: Preincubation); “active; positive” (Test System: Ames Salmonella typhimurium, Strain/Indicator: TA100, Metabolic Activation: None, Method: Preincubation); “active; positive” (Test System: Ames Salmonella typhimurium, Strain/Indicator: TA100, Metabolic Activation: Rat, liver, S-9, Aroclor 1254, Method: Preincubation).

Consider `O=C1C=C(N2CC2)C(=O)C(N2CC2)=C1N1CC1`, for which the mutagenic call (Test System: UDS RODENT PRIMARY, Strain/Indicator: THY INCORP (NON-S-PHASE), Metabolic Activation: NONE, Method: LIQUID SCINTILLATION COUNTING) was “active; positive”.

Regarding `OC(c1ccc(Cl)cc1)(c1ccc(Cl)cc1)C(Cl)(Cl)Cl`, the mutagenic call runs as follows: (End Point: IN VITRO CHROMOSOMAL ABERRATIONS, Test System: CHINESE HAMSTER OVARY CELLS, Metabolic Activation: NONE) “inactive; negative”; (End Point: IN VITRO CHROMOSOMAL ABERRATIONS, Test System: CHINESE HAMSTER OVARY CELLS, Metabolic Activation: RAT, LIVER, S-9, AROCLOR 1254) “inactive; negative”; (End Point: IN VIVO MICRONUCLEUS, Test System: BONE MARROW POLYCHROMATIC ERYTHROCYTES, Species: MOUSE, Strain/Sex: SWISS/MALE, FEMALE, Route: IP 2X IN AQUEOUS SUSPENSION WITHIN 24 HR) “inactive; negative”.

As to `CCN(CC)c1ccc(N=Nc2sc(C=O)c(Cl)c2C#N)c(NC(=O)COC)c1`, the mutagenic call (End Point: IN VITRO CHROMOSOMAL ABERRATIONS, Test System: CHL CELLS, Metabolic Activation: RAT, LIVER, S-9, SODIUM PHENOBARBITAL AND 5,6-BENZOFLAVONE) is “inactive; negative; precipitation occurred at all doses”.

As to `Oc1cccc2c1ccc1[nH]c3ccc4ccccc4c3c12`, the mutagenic call reads like this: (Test System: AMES SALMONELLA TYPHIMURIUM, Strain/Indicator: TA98, Metabolic Activation: NONE, Method: STANDARD PLATE) “active; positive”; (Test System: AMES SALMONELLA TYPHIMURIUM, Strain/Indicator: TA98, Metabolic Activation: RAT, LIVER, S-9, 3-METHYLCHOLANTHRENE, Method: STANDARD PLATE) “active; positive”; (Test System: AMES SALMONELLA TYPHIMURIUM, Strain/Indicator: TA100, Metabolic Activation: NONE, Method: STANDARD PLATE) “active; positive”; (Test System: AMES SALMONELLA TYPHIMURIUM, Strain/Indicator: TA100, Metabolic Activation: RAT, LIVER, S-9, 3-METHYLCHOLANTHRENE, Method: STANDARD PLATE) “active; positive”; (Test System: AMES SALMONELLA TYPHIMURIUM, Strain/Indicator: TM677, Metabolic Activation: NONE, Method: PREINCUBATION) “inactive; negative”; (Test System: AMES SALMONELLA TYPHIMURIUM, Strain/Indicator: TM677, Metabolic Activation: RAT, LIVER, S-9, 3-METHYLCHOLANTHRENE (10%), Method: PREINCUBATION) “active; positive”. Besides, under “Test System: AMES SALMONELLA TYPHIMURIUM, Strain/Indicator: TM677, Metabolic Activation: RAT, LIVER, S-9, AROCLOR 1254 (10%), Method: PREINCUBATION”, the mutagenic call is “active; positive”.

On to `CCCN(CC(C)=O)N=O`, for which the mutagenic call (Test System: CHINESE HAMSTER V-79, Strain/Indicator: V-79/OUABAIN, Metabolic Activation: HAMSTER, HEPATOCYTES, Method: CELL-MEDIATED) is “active; positive”.

Values taken from PubChem BioAssay AID1259407 (Chemical Carcinogenesis Research Information System (CCRIS), 2018).
